Results on two compounds are retold here after PMC8453936, “Development and in vitro Profiling of Dual FXR/LTA4H Modulators” (Chemmedchem, 2021).

One data set has as its target T1, recombinant human sEH (Homo sapiens, UniProt P34913).
T1 construct: Human sEH full length protein was purified as described by Lukin et al; made in house; host or cells: E. coli BL21 (DE3)
T1 sequence (P34913 1-555): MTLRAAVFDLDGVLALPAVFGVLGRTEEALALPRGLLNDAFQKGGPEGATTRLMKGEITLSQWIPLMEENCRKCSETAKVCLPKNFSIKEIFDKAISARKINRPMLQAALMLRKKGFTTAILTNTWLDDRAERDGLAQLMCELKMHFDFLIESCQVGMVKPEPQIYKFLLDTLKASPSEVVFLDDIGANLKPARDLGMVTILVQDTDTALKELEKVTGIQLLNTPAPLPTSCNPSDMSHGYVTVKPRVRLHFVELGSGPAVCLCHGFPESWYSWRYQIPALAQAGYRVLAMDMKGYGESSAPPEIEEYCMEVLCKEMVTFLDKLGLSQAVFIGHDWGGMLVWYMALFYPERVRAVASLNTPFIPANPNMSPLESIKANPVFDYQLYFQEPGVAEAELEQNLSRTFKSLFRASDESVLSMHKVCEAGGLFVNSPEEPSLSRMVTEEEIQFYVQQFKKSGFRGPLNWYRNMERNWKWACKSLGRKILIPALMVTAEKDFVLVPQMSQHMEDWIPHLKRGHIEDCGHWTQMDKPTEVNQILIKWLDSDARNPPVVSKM
In words: sEH activity assay with PHOME as fluorogenic substrate. It is filed as biochemical. To be noted: mean±S.E.M., n=3.

A further data set concerns HepG2 cells. In words: WST-1 cell viability assay. To be noted: up to 100 μM, 48 h. In kind it is cell-based.
The subject of data set [1] is related nuclear receptors (RAR, PPAR, LXR, VDR, CAR, RXR). In words: Gal4 hybrid reporter gene assays, selectivity over related nuclear receptors (HEK293T). It is filed as cell-based, human. To be noted: heatmap of mean relative activation, n=2. The text has this: Isothermal titration calorimetry (ITC) confirmed binding of 8 and 19 to the recombinant proteins of both FXR LBD and LTA4H (Figure 1).
Figure 2 (a) Selectivity profiles of 8 and 19 over related nuclear receptors. […] (b) Activity of 8 and 19 in a WST‐1 cell viability assay in HepG2 cells. Data are mean±S.E.M., n=4. […] Data are mean±S.E.M. relative FXR activation (%), n≥3. […] Data are mean±S.E.M. relative LTA4H inhibition (%), n=3.
Hybrid reporter gene assays. Nuclear receptor modulation was determined in hybrid reporter gene assays using the Gal4‐fusion receptor plasmids pFA‐CMV‐hPPARα‐LBD,[39] pFA‐CMV‐hPPARγLBD,[39] pFA‐CMV‐hPPARδ‐LBD,[39] pFA‐CMV‐hLXRα‐LBD,[40] pFACMV‐hLXRβ‐LBD,[40] pFA‐CMV‐hRXRα‐LBD,[41] pFA‐CMV‐hRARα‐LBD,[41] pFA‐CMV‐hVDR‐LBD[41] and pFA‐CMV‐hCAR‐LBD[41] coding for the hinge region and ligand binding domain (LBD) of the canonical isoform of the respective nuclear receptor, pFR‐Luc (Stratagene) as reporter plasmid and pRL‐SV40 (Promega) for normalization of transfection eﬃciency. HEK293T cells were grown in DMEM high glucose, supplemented with 10 % FCS, sodium pyruvate (1 mM), penicillin (100 U/mL), and streptomycin (100 μg/mL) at 37 °C and 5 % CO2, and seeded in 96‐well plates (2.5 ⋅ 10^4 cells/well) the day before transfection. […] Luminescence was measured with an Infinite M200 luminometer (Tecan Deutschland GmbH, Germany). […]

Data set [2] concerns the target T2, recombinant human LTA4H (Homo sapiens, UniProt P09960).
T2 sequence (P09960 1-611): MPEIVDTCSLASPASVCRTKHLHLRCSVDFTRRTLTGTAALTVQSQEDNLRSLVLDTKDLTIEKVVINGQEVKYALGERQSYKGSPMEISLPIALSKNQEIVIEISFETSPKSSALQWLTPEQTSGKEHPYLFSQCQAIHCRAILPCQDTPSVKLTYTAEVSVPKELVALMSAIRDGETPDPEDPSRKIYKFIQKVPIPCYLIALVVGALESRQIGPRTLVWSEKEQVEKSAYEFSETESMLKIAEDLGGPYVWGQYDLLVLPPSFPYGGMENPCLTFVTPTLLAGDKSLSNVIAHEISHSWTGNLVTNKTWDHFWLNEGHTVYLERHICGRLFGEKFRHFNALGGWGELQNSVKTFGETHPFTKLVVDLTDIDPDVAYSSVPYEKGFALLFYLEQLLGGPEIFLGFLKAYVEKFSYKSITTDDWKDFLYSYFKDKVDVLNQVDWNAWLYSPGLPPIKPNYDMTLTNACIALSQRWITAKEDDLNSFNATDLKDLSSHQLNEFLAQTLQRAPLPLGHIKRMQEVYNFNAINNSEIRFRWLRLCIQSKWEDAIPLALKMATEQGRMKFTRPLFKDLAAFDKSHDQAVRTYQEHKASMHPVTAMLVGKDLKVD
Particulars: for LTA4H max. inhib.: LTA4H inhibition at the highest tested concentration (up to 100 μM), mean±S.E.M., n=3.
From the text: FXR modulation by 3–20 was characterized in a cellular (HeLa, transiently transfected) full‐length FXR reporter gene assay employing the human FXR response element from the promoter region of bile salt export protein (BSEP) to govern firefly luciferase expression as reporter gene.[26, 27] FXR and its natural heterodimer partner retinoid X receptor (RXR) were constitutively over‐expressed and a constitutively expressed renilla luciferase was present as internal control for transfection efficiency and cellular health.
LTA4H assay. […] The assay was performed in black polystyrol 96‐well plates in a final volume of 100 μL. Test compound solution in DMSO (1 μL) or DMSO alone as control were incubated with 89 μl protein mixture (containing LTA4H, buffer and Triton‐X‐100). After 30 min, 10 μl of substrate mixture (containing L‐arginin‐7‐amido‐4‐methylcumarine and DMSO in buffer) were added. […] A blank measurement containing no protein was performed and treated as 0 % conversion control. All samples were measured in triplicates and each experiment was conducted in three independent repeats.

Data set [3] concerns the target T2, recombinant human LTA4H. In words: Isothermal titration calorimetry on LTA4H. Further details: His-tag (inferred from IMAC on HisTrap); made in house; host or cells: E. coli BL21(DE3)RIPL-Codon Plus. Particulars: ITC, 25 °C, 1:1 binding assumed.

As for `O=C(O)c1cccc(NC(=O)c2ccc(OCCCc3ccccc3)cc2)c1` [compound 8], at recombinant human sEH (at 100 μM), the sEH inhibition was 6±1 % inhibition at 100 μM. Also, the “cytotoxic / anti-proliferative effect in WST-1 assay” value in the data set with HepG2 cells is listed as “slight anti‐proliferative activity at high concentration”. Moreover, the “selectivity over related nuclear receptors” value in data set [1] is listed as “favorable selectivity”. At recombinant human LTA4H [2], the IC50 amounted to 140 ± 10 nM and the LTA4H max. inhib. turned out to be 98.8±0.1%. Moreover, the dissociation constant Kd at recombinant human LTA4H [3] is approximately 300 nM.
As to `O=C(O)c1ccnc(NC(=O)c2ccc(OCCCc3ccccc3)cc2)c1` [compound 19, 2‐(4‐(3‐Phenylpropoxy)benzamido)isonicotinic acid], the IC50 is 68000 nM at recombinant human sEH (read-out: sEH inhibition IC50) and 450 ± 20 nM on recombinant human LTA4H [2]. Further, in the data set with HepG2 cells, the “cytotoxic / anti-proliferative effect in WST-1 assay” value was “no cytotoxic effects”. Moreover, the “selectivity over related nuclear receptors” value in data set [1] is on record as “favorable selectivity”. The LTA4H max. inhib. on recombinant human LTA4H [2] stood at 98.9±0.1%. In addition, the dissociation constant (Kd) at recombinant human LTA4H [3] is approximately 700 nM.
